Here are results for six compounds from PMC12446476 (Nature Communications, 2025).

≈ marks a conversion by molar mass, not a printed value. Where “and” joins values, the source holds several entries; their conditions need not be identical. Equal values may be shown once. Read-outs that look alike come from different tables or passages of the source.

Series [1] has as its target T1, recombinant NgFabI protein (Neisseria gonorrhoeae, UniProt A0ACH0F547). Briefly: biochemical. On the procedure: FabI activity was monitored by measuring NADH consumption. […] To initiate reactions, 50 µM NADH was added, and absorbance was monitored at 340 nm every 12 s for a total of 40 min using a Spectramax Plus 384 plate reader (Molecular Devices) at a controlled temperature of 30 °C. Data were analysed using the XLfit Microsoft Excel plugin (version 5.5). IC50 values were determined using a logistic sigmoid curve-fitting of the inhibitor dose response curves.

The next series relates to N. gonorrhoeae. Briefly: MIC determination, agar dilution (CLSI). It counts as cell-based, Neisseria gonorrhoeae. The conditions noted are these: for MIC: Neisseria gonorrhoeae, read-out: Minimum inhibitory concentration; for NgMIC50: screening panel of 14 N. gonorrhoeae isolates. The source says: The 2024 WHO N. gonorrhoeae reference strains were used for quality control. Only whole MIC doubling dilutions are reported. Clinical breakpoints or the epidemiological cutoff (ECOFF, to indicate azithromycin resistance) from EUCAST (v14.0, https://www.eucast.org/clinical_breakpoints) were used to classify isolates as antimicrobial susceptible or resistant. […] Two times the standard inoculum defined by CLSI was used to establish consistent growth in untreated control samples for some strains. In vitro time-kill assays were performed according to CLSI guidelines[65] using Columbia Broth (BD Difco) supplemented with 1% IsoVitaleX Enrichment (BD). Viable bacterial counts were generated by plating 10-fold serially diluted samples on GC agar plates containing 1% IsoVitaleX Enrichment (BD).
A general note: In agar dilution the substance is mixed into plates at graded concentrations.

Series [2] addresses T1, recombinant NgFabI protein. The following applies: cited from earlier work.
A further series has as its system E. coli WP2 uvrA. Put plainly: Ames assay, E. coli strain. It counts as cell-based. The conditions noted are these: without S9, positive control 500 µg/plate. As to the method:
Ames assays were performed using four strains of Salmonella typhimurium (TA1535, TA1537, TA98 and TA100) and a single strain of E. coli (WRP2 uvrA) in the presence and absence of S9 tissue homogenate. Dose levels (µg/plate) up to 4000 were assessed for WP2 uvrA and TA98, 500 for TA1535, 250 for TA1537 and 62.5 for TA100.
For orientation: The Ames test detects mutagens through reverse mutation in bacteria.

Series [3] has as its system mouse lymphoma L5178Y TK+/− cells. It counts as cell-based. The following applies: positive control, 10 µg/mL.
Series [4] is described as follows: HepG2 cell viability (CellTiter-Glo). The class given is cell-based. The conditions noted are these: human, HepG2 cells, read-out: Cell viability, Mean (n=3).
Description: (§1) HepG2 cells (HB-8065; ATCC) cultured in DMEM (Gibco) with 5% fetal bovine serum (heat-inactivated, Sigma-Aldrich) and 1% penicillin-streptomycin (ThermoFisher), were seeded in 96-well plates (3.0 × 10^4 per well) and incubated at 37 °C and 5% CO2. […] Each treatment was assessed in triplicate. Cytotoxicity was determined using CytoTox-ONE^TM Homogenous Membrane Integrity Assay kits (Promega), and cell viability was determined using CellTiter-Glo® Luminescent Cell Viability Assay kits (Promega), each according to the manufacturer’s specifications.
The next series has as its system HepG2 cells. Briefly: HepG2 cytotoxicity (CytoTox-ONE membrane integrity). The conditions noted are these: 24 h. It counts as cell-based, human.
Where [5] appears, read: screening panel N. gonorrhoeae isolate A.
[6] abbreviates: screening panel N. gonorrhoeae isolate B.
Setting [7] is: screening panel N. gonorrhoeae isolate C.
Setting [8] is: screening panel N. gonorrhoeae isolate D.
Where [9] appears, read: screening panel N. gonorrhoeae isolate E.
[10] abbreviates: screening panel N. gonorrhoeae isolate F.
[11] abbreviates: screening panel N. gonorrhoeae isolate G.
The mark [12] stands for this setting: screening panel N. gonorrhoeae isolate H.
Setting [13] is: screening panel N. gonorrhoeae isolate I.
The mark [14] stands for this setting: screening panel N. gonorrhoeae isolate J.
Where [15] appears, read: screening panel N. gonorrhoeae isolate K.
Where [16] appears, read: screening panel N. gonorrhoeae isolate L.
Where [17] appears, read: screening panel N. gonorrhoeae isolate M.
Where [18] appears, read: screening panel N. gonorrhoeae isolate N.

T1 sequence (A0ACH0F547 entry or part of it): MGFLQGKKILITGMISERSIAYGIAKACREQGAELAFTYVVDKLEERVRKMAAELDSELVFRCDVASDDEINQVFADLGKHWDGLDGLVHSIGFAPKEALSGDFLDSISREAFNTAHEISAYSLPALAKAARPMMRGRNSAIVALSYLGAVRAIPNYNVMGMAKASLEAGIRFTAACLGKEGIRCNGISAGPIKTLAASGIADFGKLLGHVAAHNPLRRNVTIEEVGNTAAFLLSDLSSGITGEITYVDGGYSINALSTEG
Description for HepG2 cells: as §1

Broadly, the IC50 is the concentration that gives 50% inhibition. Turning to `Cc1c(CN(C)C(=O)/C=C/c2cnc3c(c2)NCCC(=O)N3)oc2ccccc12` [Compound 1], the half-inhibitory concentration (IC50) in series [1] was found to be 6 nM. Further, the MIC in the series with N. gonorrhoeae (setting [5]) came to 0.25 µg/mL (≈ 0.64 µM); in the series with N. gonorrhoeae (setting [6]), 0.125 µg/mL (≈ 0.32 µM); in the series with N. gonorrhoeae (setting [7]), 0.125 µg/mL (≈ 0.32 µM); in the series on N. gonorrhoeae (setting [8]) it was 0.25 µg/mL (≈ 0.64 µM); in the series on N. gonorrhoeae (setting [9]) it was 0.125 µg/mL (≈ 0.32 µM); in the series with N. gonorrhoeae (setting [10]), 0.25 µg/mL (≈ 0.64 µM). The MIC with N. gonorrhoeae (setting [11]) is 0.5 µg/mL (≈ 1.28 µM); in the series on N. gonorrhoeae (setting [12]), 0.25 µg/mL (≈ 0.64 µM); with N. gonorrhoeae (setting [13]) it was 0.125 µg/mL (≈ 0.32 µM); with N. gonorrhoeae (setting [14]), 0.25 µg/mL (≈ 0.64 µM); with N. gonorrhoeae (setting [15]), 0.5 µg/mL (≈ 1.28 µM); in the series on N. gonorrhoeae (setting [16]) it was 0.25 µg/mL (≈ 0.64 µM). In addition, the MIC in the series with N. gonorrhoeae (setting [17]) and in the series on N. gonorrhoeae (setting [18]) was 0.125 µg/mL (≈ 0.32 µM) throughout. The NgMIC50 in the series on N. gonorrhoeae is 0.25 µg/mL.

As for `Cc1c(CN(C)C(=O)/C=C/c2cnc3c(c2)N[C@H](C)CC(=O)N3)oc2ccccc12` [Compound 2], the IC50 in series [1] was 2.4 nM. Also, the MIC with N. gonorrhoeae (setting [5]) is 0.25 µg/mL (≈ 0.618 µM); in the series on N. gonorrhoeae (setting [6]), 0.125 µg/mL (≈ 0.309 µM); in the series with N. gonorrhoeae (setting [7]), 0.125 µg/mL (≈ 0.309 µM); with N. gonorrhoeae (setting [8]), 0.125 µg/mL (≈ 0.309 µM); in the series on N. gonorrhoeae (setting [9]), 0.06 µg/mL (≈ 0.148 µM); in the series with N. gonorrhoeae (setting [10]) it was 0.25 µg/mL (≈ 0.618 µM). In addition, the MIC in the series on N. gonorrhoeae (setting [11]) was 0.25 µg/mL (≈ 0.618 µM); with N. gonorrhoeae (setting [12]) it was 0.125 µg/mL (≈ 0.309 µM); with N. gonorrhoeae (setting [13]) it was 0.125 µg/mL (≈ 0.309 µM); with N. gonorrhoeae (setting [14]) it was 0.125 µg/mL (≈ 0.309 µM); with N. gonorrhoeae (setting [15]) it was 0.5 µg/mL (≈ 1.24 µM); in the series with N. gonorrhoeae (setting [16]) it was 0.125 µg/mL (≈ 0.309 µM). For the same compound, the MIC in the series on N. gonorrhoeae (setting [17]) and with N. gonorrhoeae (setting [18]) was 0.125 µg/mL (≈ 0.309 µM) throughout. In the series on N. gonorrhoeae, this compound registered a NgMIC50 of 0.125 µg/mL.

As for `Cc1c(CN(C)C(=O)/C=C/c2cnc3c(c2)N[C@@H](C)CC(=O)N3)oc2ccccc12` [Compound 6], the IC50 in series [1] came to 14 nM. Besides, the “fold less potent than its enantiomer compound 2 (NgFabI IC50)” value in series [1] was determined as 5 fold. For the same compound, the Minimum inhibitory concentration in the series on N. gonorrhoeae (setting [5]) is 1 µg/mL (≈ 2.47 µM); in the series on N. gonorrhoeae (setting [6]) it was 0.5 µg/mL (≈ 1.24 µM); in the series on N. gonorrhoeae (setting [7]), 0.5 µg/mL (≈ 1.24 µM); with N. gonorrhoeae (setting [8]) it was 0.5 µg/mL (≈ 1.24 µM); with N. gonorrhoeae (setting [9]), 0.5 µg/mL (≈ 1.24 µM); with N. gonorrhoeae (setting [10]), 1 µg/mL (≈ 2.47 µM). For the same compound, the Minimum inhibitory concentration came to 1 µg/mL (≈ 2.47 µM) in the series with N. gonorrhoeae (setting [11]); 1 µg/mL (≈ 2.47 µM) in the series on N. gonorrhoeae (setting [12]); 0.5 µg/mL (≈ 1.24 µM) in the series on N. gonorrhoeae (setting [13]); 1 µg/mL (≈ 2.47 µM) in the series with N. gonorrhoeae (setting [14]); 2 µg/mL (≈ 4.94 µM) in the series with N. gonorrhoeae (setting [15]); 0.5 µg/mL (≈ 1.24 µM) in the series on N. gonorrhoeae (setting [16]). For the same compound, the Minimum inhibitory concentration in the series on N. gonorrhoeae (setting [17]) and in the series with N. gonorrhoeae (setting [18]) was 0.5 µg/mL (≈ 1.24 µM) throughout.

Regarding `Cc1c(CN(C)C(=O)/C=C/c2cnc3c(c2)CCC(=O)N3)oc2ccccc12` [Debio 1452, (E)-N-methyl-N-((3-methylbenzofuran-2-yl)methyl)-3-(7-oxo-5,6,7,8-tetrahydro-1,8-naphthyridin-3-yl)acrylamide, reference compound], the MIC in the series with N. gonorrhoeae (setting [9]) was found to be 0.5 µg/mL (≈ 1.33 µM); with N. gonorrhoeae (setting [10]) it was 2 µg/mL (≈ 5.33 µM); in the series with N. gonorrhoeae (setting [11]) it was 4 µg/mL (≈ 10.7 µM); in the series with N. gonorrhoeae (setting [12]), 2 µg/mL (≈ 5.33 µM); with N. gonorrhoeae (setting [13]) it was 1 µg/mL (≈ 2.66 µM); in the series on N. gonorrhoeae (setting [14]) it was 2 µg/mL (≈ 5.33 µM). Moreover, the MIC in the series with N. gonorrhoeae (setting [15]) came out at 4 µg/mL (≈ 10.7 µM). Further, in series [2] (deduced from Figure 3A of reference 15), the IC50 was ~100 nM. Moreover, the Ki in series [2] (seen by the reviewer in the cited work, read-out: Kiapp) was 5 nM.

Take `COS(C)(=O)=O` [MMS, Methyl methanesulfonate]: in the series on E. coli WP2 uvrA, the “Ames bacterial mutation assessment, Mean” value was 168; the Colony count was 174 and 161 and 169. Further, in series [3], the Induced mutant frequency amounted to 421.6 and the “Mutant frequency per 10^6 cells” value came to 490.9.

As usually defined, the viability is a read-out of living cells in per cent, often relative to untreated cells. In the case of `CN(C)CCCN1c2ccccc2Sc2ccc(Cl)cc21` [chlorpromazine], the viability at 24 h, 5 µM in series [4] (5 µM) is 101%. Also, the viability at 24 h, 50 µM in series [4] (50 µM) amounted to 1%. The viability at 24 h, 250 µM in series [4] (250 µM) was determined as 0%. Further, the “Cytotoxicity, Mean (n=3)” value in the series with HepG2 cells (5 µM) is 5%; with HepG2 cells (50 µM) it was 33%; with HepG2 cells (250 µM), 29%.
